Laboratory results as given in PMC9151520 (Archives of Toxicology, 2022).
pEC50: −log10 of the molar value. “And” between values parts separate entries of the source, which are not always exact repeats. Equal entries are not always repeated. Where two headings read alike, the source gives them in different places.

Columns and labels:
[1] = tested on: p53 signaling (p53RE-bla HCT-116 cells); experiment: cells; type: cell-based
[2] = tested on: p53 signaling (p53RE-bla HCT-116 cells)
[3] = tested on: p53 signaling (p53RE-bla HCT-116 cells); remark: listed apart in the source
[4] = Homo sapiens, HCT-116, read-out: p53 activation EC50, cherry pick confirmation
[5] = Homo sapiens, HCT-116, read-out: p53 activation EC50, primary screening
[6] = Homo sapiens, HCT-116, read-out: p53 activation efficacy, cherry pick confirmation
[7] = Homo sapiens, HCT-116, read-out: p53 activation efficacy, primary screening
[8] = Homo sapiens, HCT-116, read-out: EC50, p53 activation, primary screening
[9] = Homo sapiens, HCT-116, read-out: Efficacy, p53 activation, primary screening
[10] = read-out: EC50, p53 activation, primary screening
[11] = read-out: p53 activation EC50, cherry pick confirmation
[12] = read-out: p53 activation EC50, primary screening
[13] = read-out: Viability EC50, cherry pick confirmation
[14] = read-out: Viability EC50, primary screening

Compound	Viability EC50, cherry pick confirmation (p53RE-bla HCT-116 cells)	Viability EC50, primary screening (p53RE-bla HCT-116 cells)	Viability efficacy, cherry pick confirmation (p53RE-bla HCT-116 cells)	Viability efficacy, primary screening (p53RE-bla HCT-116 cells)	p53 activation EC50, cherry pick confirmation [2]	p53 activation EC50, primary screening [2]	p53 activation efficacy, cherry pick confirmation [2]	p53 activation efficacy, primary screening [2]	p53 activation EC50, cherry pick confirmation [3]	p53 activation EC50, primary screening [3]	p53 activation efficacy, cherry pick confirmation [3]	p53 activation efficacy, primary screening [3]	EC50, viability, cherry pick confirmation (p53RE-bla HCT-116 cells)	EC50, viability, primary screening (p53RE-bla HCT-116 cells)	Efficacy, viability, primary screening (p53RE-bla HCT-116 cells)	EC50, p53 activation, cherry pick confirmation [2]	EC50, p53 activation, primary screening [2]	Efficacy, p53 activation, cherry pick confirmation [2]	p53 activation efficacy, cherry pick confirmation [1]	p53 activation efficacy, primary screening [1]	also measured
COc1c(C)c2c(c(O)c1C/C=C(\C)CCC(=O)OCCN1CCOCC1)C(=O)OC2 [Mycophenolate mofetil]	inactive	inactive	inactive	inactive	inactive	inactive	inactive	inactive	inactive	inactive	inactive	inactive									pEC50 [1, 4]: 6.68; pEC50 [1, 5]: 6.79; Emax [1, 6]: 56.2%; Emax [1, 7]: 36.3%
Cn1cnc([N+](=O)[O-])c1Sc1ncnc2nc[nH]c12 [Azathioprine]													inactive	inactive	inactive	inactive	inactive	inactive			EC50, p53 activation, cherry pick confirmation [1]: inactive; Efficacy, p53 activation, cherry pick confirmation [1]: inactive; pEC50 [1, 8]: 4.47; Emax [1, 9]: 39.9%; Efficacy, viability, cherry pick confirmation (p53RE-bla HCT-116 cells): inactive; Efficacy, p53 activation, primary screening [2]: inactive; EC50, p53 activation, cherry pick confirmation [3]: inactive; EC50, p53 activation, primary screening [3]: inactive; Efficacy, p53 activation, cherry pick confirmation [3]: inactive; Efficacy, p53 activation, primary screening [3]: inactive
O=C(c1ccc(O)cc1)c1ccc(O)cc1O [2,4,4'-Trihydroxybenzophenone]													inactive	inactive	inactive	inactive	inactive	inactive			EC50, p53 activation, cherry pick confirmation [1]: inactive; Efficacy, p53 activation, cherry pick confirmation [1]: inactive; Efficacy, p53 activation, primary screening [1]: 51.9983; pEC50 [1, 10]: 4.33; Efficacy, viability, cherry pick confirmation (p53RE-bla HCT-116 cells): inactive; Efficacy, p53 activation, primary screening [2]: inactive; EC50, p53 activation, cherry pick confirmation [3]: inactive; EC50, p53 activation, primary screening [3]: inactive; Efficacy, p53 activation, cherry pick confirmation [3]: inactive; Efficacy, p53 activation, primary screening [3]: inactive
CCN(CC)c1ccc2c(C)cc(=O)oc2c1 [7-Diethylamino-4-methylcoumarin]																					pEC50 ([1]; read-out: p53 activation EC50, No MS): 4.88 and 4.60; Viability EC50, HLM (p53RE-bla HCT-116 cells): inactive; Viability EC50, No MS (p53RE-bla HCT-116 cells): inactive; Viability EC50, RLM (p53RE-bla HCT-116 cells): inactive; Viability Efficacy, HLM (p53RE-bla HCT-116 cells): inactive; Viability Efficacy, No MS (p53RE-bla HCT-116 cells): inactive; Viability Efficacy, RLM (p53RE-bla HCT-116 cells): inactive; p53 activation EC50, RLM [2]: inactive; p53 activation Efficacy, RLM [2]: inactive; p53 activation EC50, HLM [3]: inactive; pEC50 ([3]; read-out: p53 activation EC50, HLM): 4.39
CC(=O)[O][Sn]([c]1ccccc1)([c]1ccccc1)[c]1ccccc1 [Triphenyltin acetate]					inactive	inactive	inactive	inactive	inactive	inactive	inactive	inactive							67.021	86.4573	pEC50 [1, 11]: 4.84; pEC50 [1, 12]: 4.66; pEC50 (p53RE-bla HCT-116 cells; [13]): 5.30 and 5.27 and 5.17; pEC50 (p53RE-bla HCT-116 cells; [14]): 5.27 and 5.11 and 5.19
CC(C)CP(=S)([S-])CC(C)C.[Na+] [Sodium diisobutyldithiophosphinate]	inactive	inactive	inactive	inactive	inactive		inactive		inactive		inactive								36.227	inactive	p53 activation EC50, primary screening [1]: inactive; pEC50 [1, 11]: 5.65
O=c1cc(-c2ccccc2)oc2cc(O)cc(O)c12 [Chrysin]													inactive	inactive	inactive	inactive	inactive	inactive			pEC50 ([1]; Homo sapiens, HCT-116, read-out: EC50, p53 activation, cherry pick confirmation): 4.35; pEC50 [1, 8]: 4.31; Emax ([1]; Homo sapiens, HCT-116, read-out: Efficacy, p53 activation, cherry pick confirmation): 43.6%; Emax [1, 9]: 38.6%; Efficacy, viability, cherry pick confirmation (p53RE-bla HCT-116 cells): inactive; Efficacy, p53 activation, primary screening [2]: inactive; EC50, p53 activation, cherry pick confirmation [3]: inactive; EC50, p53 activation, primary screening [3]: inactive; Efficacy, p53 activation, cherry pick confirmation [3]: inactive; Efficacy, p53 activation, primary screening [3]: inactive
N[C@@H](Cc1ccc(N(CCCl)CCCl)cc1)C(=O)O [Melphalan]	inactive	inactive	inactive	inactive	inactive	inactive	inactive	inactive	inactive	inactive	inactive	inactive									pEC50 [1, 4]: 4.81; pEC50 [1, 5]: 4.75; Emax [1, 6]: 43.3%; Emax [1, 7]: 46.7%
C#C[C@]1(O)CC[C@H]2[C@@H]3CCc4cc(O)ccc4[C@H]3CC[C@@]21C [17alpha-Ethinylestradiol]	inactive	inactive	inactive	inactive	inactive	inactive	inactive	inactive	inactive	inactive	inactive	inactive									pEC50 [1, 4]: 5.44; pEC50 [1, 5]: 4.93; Emax [1, 6]: 50.6%; Emax [1, 7]: 38.5%
Cl.Nc1ccc2cc3ccc(N)cc3nc2c1 [Proflavin hydrochloride]	inactive	inactive	inactive	inactive	inactive	inactive	inactive	inactive	inactive	inactive	inactive	inactive							356.887	211.641	pEC50 [1, 11]: 5.44; pEC50 [1, 12]: 5.54
Cc1ccc([N+](=O)[O-])c(C)c1 [1,3-Dimethyl-4-nitrobenzene]	inactive	inactive	inactive	inactive	inactive		inactive		inactive		inactive								inactive	inactive	p53 activation EC50, cherry pick confirmation [1]: inactive; p53 activation EC50, primary screening [1]: inactive
Cl.O.c1cnc2c(c1)ccc1cccnc12													inactive	inactive	inactive	inactive	inactive	inactive			Efficacy, p53 activation, cherry pick confirmation [1]: 70.9047; Efficacy, p53 activation, primary screening [1]: 35.453; pEC50 ([1]; read-out: EC50, p53 activation, cherry pick confirmation): 4.30; pEC50 [1, 10]: 4.59; pEC50 (p53RE-bla HCT-116 cells; read-out: EC50, viability, cherry pick confirmation): 4.66; Efficacy, p53 activation, primary screening [2]: inactive; EC50, p53 activation, cherry pick confirmation [3]: inactive; EC50, p53 activation, primary screening [3]: inactive; Efficacy, p53 activation, cherry pick confirmation [3]: inactive; Efficacy, p53 activation, primary screening [3]: inactive
N#CSCSC#N [Methylene bis(thiocyanate)]					inactive	inactive	inactive	inactive	inactive	inactive	inactive	inactive							39.736	49.8917	pEC50 [1, 11]: 5.00; pEC50 [1, 12]: 4.93; pEC50 (p53RE-bla HCT-116 cells; [13]): 4.42 and 4.44 and 4.39; pEC50 (p53RE-bla HCT-116 cells; [14]): 4.40 and 4.33 and 4.45
